What was measured:
[1] = test system: primary human fibroblasts; assay: caspase 3/7 activity apoptosis assay (ApoTox-Glo) in proliferating and quiescent fibroblasts; format: cell-based; conditions: for effect on MG132-induced apoptosis: 2-ME with increasing MG132
Protocol: Referring to FIG. 2A, primary human fibroblasts were tested either in a proliferating state or after being induced into quiescence. Quiescence may be induced by either contact inhibition or serum starvation. Cells were treated with DHEA for four days, with bafilomycin added on the fourth day. Apoptosis was assessed based on the activity of caspase 3/7 for a fluorogenic substrate.
PPP inhibition and apoptosis analysis: Apoptosis was measured based on the levels of caspase 3/7 released into the media using the ApoTox-Glo Triplex Assay according to the manufacturer's instructions (Promega Corp., Madison, Wis.). Cells were plated in triplicate at 10,000 cells per well in white-walled, clear-bottom 96-well plates (Costar, Corning Life Sciences, Lowell, Mass.). For contact inhibition, cells were plated 7 days prior to the start of treatment, for serum starvation cells were plated 4 days prior to treatment and switched to 0.1% serum media for the remaining 3 days, while proliferating cells were plated the day prior to the start of treatment. […] Cells in serum starvation conditions were incubated in 0.1% serum during treatment as well. The apoptosis reagent was added at 100 μl per well and incubated for 1 h prior to reading. Luminescence was read from the top using a Synergy-2 plate reader (Biotek, Winooski, Vt.). Luminescence data were normalized to the vehicle only condition.
Apoptosis induction was assessed by monitoring caspase 3/7 activity using a luminescent caspase substrate. This assay is optimized for high-throughput screening in 96-well plates and allows multiple concentrations and combination of drugs to be tested in triplicate at different time points. […] Therefore, this assay was used to compare proliferating and serum-starved cells only.

[2] = test system: skin papillomas and carcinomas; conditions: cited from earlier work; for skin papilloma development: mouse
[3] = test system: breast cancer cell lines; conditions: cited from earlier work
[4] = test system: neoplasms, lymphoblastic lymphoma; conditions: p53-deficient mouse; cited from earlier work
[5] = test system: p62/SQSTM1; assay: p62 immunoblot (autophagic flux); format: cell-based, human; conditions: contact-inhibited (7 dCI) fibroblasts vs proliferating or vehicle/non-treated controls
Protocol: (§1) The levels of autophagy components—Atg5/Atg12, Atg7, Atg3, and LC3-I and LC3-II—were monitored in proliferating and contact-inhibited fibroblasts using immunoblotting (FIG. 21A). As a positive control for autophagy induction, samples of cells in each cell cycle state were also incubated in Kreb's Ringer Bicarbonate solution (KRB), a protocol that induces autophagy through amino acid starvation and elimination of other nutrients except glucose. Levels of Atg5/Atg12, Atg7, and LC3-II were elevated in all of the amino acid starvation and contact-inhibition states as compared to the proliferating state (FIG. 21A). Atg3 was induced in all quiescent states compared with proliferating states, including amino acid starvation. In order to differentiate whether the high levels of autophagy proteins resulted from a blockade of autophagy degradation or active flux through the pathway, we monitored the levels of LC3-II in proliferating and 7 dCI fibroblasts in the presence of bafilomycin A1 (Baf-A1). Baf-A1 is a vacuolar-type H^+-ATPase inhibitor that prevents autophagosome fusion with the lysosome due to an increase in lysosomal pH. […] This finding is consistent with active autophagic flux in quiescent fibroblasts

[6] = test system: LC3-II; assay: LC3-II immunoblot (autophagy / autophagic flux); format: cell-based, human
Protocol: as §1
In addition to its role in providing amino acids and energy under starvation conditions, autophagy is involved in maintenance of cellular homeostasis and resistance to tumorigenesis through degradation of old or damaged proteins and entire organelles. It was hypothesized that autophagy in contact-inhibited cells could function to degrade old and/or damaged proteins that would otherwise accumulate in the cytoplasm due to lack of cell division as a mechanism for dilution of these proteins. Oxidation of proteins causes the formation of carbonyl groups on amino acids, and carbonylation can disrupt protein function. To monitor the extent of protein oxidation in proliferating and contact-inhibited fibroblasts, the protein carbonyl groups were derivatized using 2,4-dinitrophenylhydrazine (DNP), and monitored using immunoblotting with an antibody that recognizes the covalently added DNP. The levels of oxidized proteins in proliferating and 7 dCI fibroblasts were monitored in cells that were either competent to perform autophagy (control), or were stably expressing an shRNA against the essential autophagy components Atg5 (sh-Atg5) or Atg7 (sh-Atg7), which are known to represent autophagy-defective phenotypes in other model systems. […] In contact-inhibited fibroblasts, in contrast, the levels of oxidized proteins increased 1.5-fold±0.1 in 7 dCI sh-Atg5 fibroblasts as compared to vector control counterparts (p=0.009) (FIG. 22B). […]
To test this hypothesis, the levels of an autophagy-specific form of the LC3 protein, LC3 II, were monitored compared to a housekeeping protein (Klionsky et al., 2008, “Guidelines for the use and interpretation of assays for monitoring autophagy in higher eukaryotes,” Autophagy 4, 151-175, which is incorporated herein by reference as if fully set forth). […]
We observed an increase in the ratio of LC3 II to GAPDH in response to MG132 treatment for cells in proliferating, contact-inhibited and serum-starved states (FIG. 25B). To test whether the high levels of LC3 II in quiescent cells in response to MG132 treatment result from a blockade of autophagy degradation or from active flux through the pathway, LC3 II levels were monitored in proliferating and quiescent fibroblasts treated with MG132 in the presence or absence of bafilomycin A1 (Baf). […]

[7] = test system: four day serum starved fibroblasts; assay: induction of apoptosis in quiescent fibroblasts by DHEA and/or autophagy inhibitor combined with proteasome inhibitors; format: cell-based, human; conditions: proteasome inhibitor alone; four day serum starved fibroblasts
Protocol: Referring to FIG. 17, the effect of treatment using DHEA and/or an autophagy inhibitor combined with proteasome inhibitors on apoptosis in quiescent cells was analyzed.
In this experiment, the proteasome inhibitor, bortezomib, was used in varying concentrations with DHEA during a 48 hour treatment.

[8] = test system: proliferating and quiescent fibroblasts; assay: annexin V / PI flow cytometry after proteasome inhibition; format: cell-based, human; conditions: 24 hours
Protocol: To elucidate the responses of proliferating and quiescent fibroblasts to proteasome inhibition, the effects of known proteasome inhibitors on proliferating and quiescent fibroblasts were examined.
At the highest dose (10 μM), approximately 50% of proliferating cells were apoptotic (FIG. 24A-lower right (Q4), upper right (Q2), and upper left (Q1) quadrants represent early apoptosis, late apoptosis, and very late apoptosis or necrosis, respectively). In comparison, quiescent fibroblasts were largely unaffected by MG132 treatment, showing far lower levels of apoptosis.

[9] = test system: tumor cells; conditions: intraperitoneal injection of tumor cells; cited from earlier work

## COc1cc2c(cc1O)CC[C@@H]1[C@@H]2CC[C@]2(C)[C@@H](O)CC[C@@H]12 [2-ME, 2-methoxyestradiol]
[1]; proliferating fibroblasts
  effect on MG132-induced apoptosis: little effect
[1]; serum-starved fibroblasts
  effect on MG132-induced apoptosis: sensitized

## C[C@H]1CC[C@@]2(C)C(=CC[C@@H]3[C@@H]2CC[C@]2(C)C(=O)CC[C@@H]32)C1 [3-β-methylandrost-5-en-17-one]
[2]
  skin papilloma development: inhibits skin papilloma development
[2]; topical 7,12-dimethylbenz(a)anthracene (DMBA), mice
  development of skin papillomas and carcinomas: even more potent chemopreventive effect

## FC(F)(F)c1ccc2c(N3CCN(CCCNc4ccnc5cc(Cl)ccc45)CC3)ccnc2c1 [7-chloro-N-(3-(4-(7-trifluoromethyl)quinolin-4-yl)piperazin-1-yl)propyl)quinolin-4-amine]
[3]
  antiproliferative effects: very effective

## C[C@]12CCCC[C@@H]1CC[C@@H]1[C@@H]2CC[C@]2(C)C(=O)[C@H](F)C[C@@H]12 [16a-fluoro-5a-androstan-17-one]
[2]
  skin papilloma development: effective in inhibiting skin papilloma development

## C[C@]12CCCCC1=CC[C@@H]1[C@@H]2CC[C@]2(C)C(=O)[C@H](F)C[C@@H]12 [16α-fluoro-5-androsten-17-one]
[2]
  skin papilloma development: effective in inhibiting skin papilloma development
[4]
  death due to neoplasms: delay death due to neoplasms

## CO/C1=C\C(C)=C\[C@@H](C)[C@@H](O)[C@@H](C)C/C(C)=C/C=C/[C@H](OC)[C@@H]([C@@H](C)[C@@H](O)[C@H](C)[C@@]2(O)C[C@@H](O)[C@H](C)[C@@H](C(C)C)O2)OC1=O [Baf, bafilomycin A1]
[5]
  levels of p62/SQSTM1: further increase
[6]; Baf combined with MG132, serum-starved cells
  LC3 II to GAPDH ratio vs MG132 alone: did not change
[6]; Baf in conjunction with MG132, proliferating and contact-inhibited cells
  LC3 II to GAPDH ratio vs MG132 alone: further increase
[6]; Baf-treated proliferating and quiescent cells
  ratio of LC3 II to GAPDH: increase
[6]; contact-inhibited (7 dCI) fibroblasts vs proliferating or vehicle/non-treated controls
  levels of LC3-II: further increase
[1]; 100 nM Baf, proliferating cells, 24 hours post treatment
  effect on MG132-induced caspase 3/7 activity: slight reduction
[1]; 100 nM Baf, proliferating fibroblasts, 48 hours post treatment
  effect on MG132-induced apoptosis (caspase 3/7): no significant effect
[1]; 100 nM Baf, serum-starved fibroblasts
  effect on MG132-induced apoptosis (caspase 3/7): strongly enhanced
[1]; proliferating fibroblasts, 24 hours post treatment
  effect on bortezomib-induced caspase 3/7 activity: reduced
[1]; proliferating fibroblasts, after 48 hours
  effect on bortezomib-induced caspase 3/7 activity: little effect
[1]; serum-starved fibroblasts, 48 hours, 10 μM MG132
  induction of apoptosis in the presence of Baf vs MG132 alone: more than doubled

## CC(C)C[C@H](NC(=O)[C@H](Cc1ccccc1)NC(=O)c1cnccn1)B(O)O [bortezomib]
[7]
  apoptotic induction: did not result in apoptotic induction
[1]; bortezomib, serum-starved compared to proliferating fibroblasts
  induction of apoptosis (caspase 3/7): relatively low

## CC[C@H](C)[C@H](NC(=O)[C@H]([C@@H](C)CC)N(C)C(C)=O)C(=O)N[C@H](C(=O)N[C@@H](CC(C)C)C(=O)[C@@]1(C)CO1)[C@@H](C)O [epoxomicin]
[8]; 1 μM
  reduction of viability of proliferating cells: ~50%
[8]; proliferating cells
  proliferating cell viability (fraction PI negative): statistically significant, dose-dependent decrease
[8]; quiescent cells, up to 10 μM MG132, 1 μM epoxomicin
  quiescent cell viability: maintained high viability

## CCN(CCO)CCCC(C)Nc1ccnc2cc(Cl)ccc12 (stereo not drawn) [hydroxychloroquine]
[1]; serum starved fibroblasts, FIG. 2B
  induction of apoptosis: induction of apoptosis

## Cc1ncc(C[n+]2csc(CCO)c2C)c(=O)[nH]1 [oxythiamine]
[9]
  tumor growth: inhibit tumor growth

## FC(F)(F)c1ccc2c(NCCCN3CCN(c4ccnc5cc(Cl)ccc45)CC3)ccnc2c1 [{3-[4-(7-chloro-quinolin-4-yl)-piperazin-1-yl]-propyl}-(7-rifluoromethyl-quinolin-4-yl)-amine]
[3]
  antiproliferative effects: very effective

From patent US20130064815A1, “INDUCING APOPTOSIS IN QUIESCENT CELLS” (THE TRUSTEES OF PRINCETON UNIVERSITY, priority 2011, published 2013)
